Among the test systems are 786-0; COLO 205; EKVX; HCT-116; HOP-92; HT-29; IGROV-1; K562; KM12; OVCAR-3; OVCAR-5; OVCAR-8; SF-268; SF-295; SK-OV-3; SNB-75; SR; SW-620; T47D; UO-31.
What all share (experiment): growth of human tumour cells (NCI), 48 h

We go through seven compounds from ChEMBL document CHEMBL1201862, “PubChem BioAssay data set” (2004).

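A five-concentration, 48-hour dose response in 96-well plates underlies each endpoint, interpolated linearly between surrounding concentrations. Abbreviation: GI50, concentration required for 50% inhibition of growth.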 Activity calls are given as the source filed them. Rule as the data show it: active = GI50 up to about 1.1 µM and inactive = higher. Some results are limits rather than exact numbers.

Regarding `Cc1ccc(Nc2nnc(-c3ccc4c(c3)OCO4)o2)c(C)c1`, the GI50 in the test on 786-0 was 41.4 µM (inactive); in the test with COLO 205 it was > 100 µM (inactive); in the test on EKVX, 82 µM (inactive); with HCT-116 it was > 100 µM (inactive); in the test with HOP-92, 41.9 µM (inactive); with HT-29, > 100 µM (inactive). In addition, the GI50 was > 100 µM (inactive) in the test on IGROV-1; > 100 µM (inactive) with K562; > 100 µM (inactive) in the test on KM12; > 100 µM (inactive) in the test with OVCAR-3; > 100 µM (inactive) with OVCAR-5; 55.1 µM (inactive) in the test on OVCAR-8. For the same compound, the GI50 with SF-268 was 64.4 µM (inactive); in the test with SF-295, > 100 µM (inactive); in the test with SK-OV-3, > 100 µM (inactive); in the test on SNB-75, > 100 µM (inactive); with SR, 31.1 µM (inactive); with SW-620 it was > 100 µM (inactive). For the same compound, the results for the GI50 in the test on T47D and in the test with UO-31 were 36.2 µM (inactive) and > 100 µM (inactive), respectively.
In the case of `Nc1nc(N)nc(CCCc2nc(N)nc(N)n2)n1`, the GI50 in the test with 786-0, in the test on COLO 205, in the test on EKVX, with HCT-116, in the test with HOP-92 and in the test with HT-29 was > 100 µM (inactive) each time. Also, the GI50 in the test on IGROV-1, in the test on K562, with KM12, with OVCAR-3, in the test on OVCAR-5 and with OVCAR-8 was > 100 µM (inactive) throughout. Besides, the GI50 in the test on SF-268, with SF-295, in the test with SK-OV-3, with SNB-75, in the test on SR and in the test with SW-620 was > 100 µM (inactive) each time. The GI50 in the test on T47D and with UO-31 was > 100 µM (inactive) throughout.
For the compound `CCCC(=O)O[C@H]1C=C2C[C@@]34SS[C@]5(CC6=C[C@H](OC(C)=O)[C@@H]7O[C@@H]7[C@H]6N5C3=O)C(=O)N4[C@@H]2[C@H]2O[C@H]21`, the GI50 is < 0.005 µM (active) in the test on 786-0; 0.0137 µM (active) in the test on COLO 205; 0.0178 µM (active) with EKVX; 0.00847 µM (active) in the test on HCT-116; 0.02 µM (active) in the test on HOP-92; 0.00569 µM (active) with HT-29. The GI50 in the test with IGROV-1 was 0.0168 µM (active); in the test on K562, 0.00923 µM (active); with KM12, 0.184 µM (active); in the test with OVCAR-3, 0.00738 µM (active); in the test with OVCAR-5, 0.0112 µM (active); in the test with OVCAR-8, 0.00644 µM (active). Further, the GI50 in the test with SF-268 is 0.00775 µM (active); with SF-295 it was 0.329 µM (active); in the test on SK-OV-3, 0.0569 µM (active); in the test on SNB-75, 0.0353 µM (active); in the test with SR, < 0.005 µM (active); in the test with SW-620 it was 0.00548 µM (active). The GI50 in the test with T47D was 0.0256 µM (active); with UO-31, 0.059 µM (active).
Consider `O=C1NC(=O)/C(=C/c2ccc(S(=O)(=O)N/N=C\C(O)C(O)C(O)C(O)CO)cc2)N1` (stereo not given), for which the GI50 in the test with 786-0, with COLO 205, in the test with EKVX, in the test with HCT-116, with HOP-92 and in the test with HT-29 was > 100 µM (inactive) each time. The GI50 with IGROV-1, in the test with K562, in the test on KM12, in the test on OVCAR-3, with OVCAR-5 and in the test with OVCAR-8 was > 100 µM (inactive) in each case. The GI50 in the test with SF-268, in the test on SF-295, in the test on SK-OV-3, in the test on SNB-75, in the test with SR and in the test with SW-620 was > 100 µM (inactive) in each case. In addition, the GI50 in the test on T47D and in the test on UO-31 was > 100 µM (inactive) each time.
`CCOC(=O)/C=C(\C(=O)OCC)n1cc(C)c(=O)n(Cc2cnnn2CCCCOC(C)=O)c1=O`: the GI50 with 786-0 was 2.96 µM (inactive); with COLO 205 it was 2.09 µM (inactive); in the test with EKVX, 11.3 µM (inactive); in the test on HCT-116, 6.53 µM (inactive); in the test with HOP-92 it was 2.1 µM (inactive); in the test on HT-29 it was 5.98 µM (inactive). Moreover, the GI50 in the test on IGROV-1 was 12.7 µM (inactive); with K562, 2.64 µM (inactive); in the test with KM12, 16.7 µM (inactive); in the test on OVCAR-3 it was 13.3 µM (inactive); with OVCAR-5, 17.4 µM (inactive); in the test on OVCAR-8, 3.37 µM (inactive). The GI50 was 15.7 µM (inactive) in the test on SF-268; 32.1 µM (inactive) in the test with SF-295; > 62.4 µM (inactive) in the test on SK-OV-3; 18 µM (inactive) with SNB-75; 1.9 µM (inactive) in the test on SR; 2.32 µM (inactive) with SW-620. Also, the GI50 was 21.7 µM (inactive) in the test on T47D and 15 µM (inactive) in the test with UO-31.
For `O=C(O)C1CC2C3CCC2C1C3=O` (stereo not given), the GI50 in the test on 786-0, in the test with COLO 205, in the test on EKVX, with HCT-116, with HOP-92 and with HT-29 was > 100 µM (inactive) throughout. For the same compound, the GI50 in the test on IGROV-1, with K562, in the test on KM12, with OVCAR-3, in the test on OVCAR-5 and in the test with OVCAR-8 was > 100 µM (inactive) in each case. Moreover, the GI50 with SF-268, with SF-295, in the test with SK-OV-3, in the test with SNB-75, with SR and with SW-620 was > 100 µM (inactive) throughout. Also, the GI50 with T47D and with UO-31 was > 100 µM (inactive) in each case.
Consider `CCCCCCCCCCCCCCCC(=O)N(CCCCCCCCCCC(=O)O)CC(O)C(O)C(OC1OC(CO)C(O)C(O)C1O)C(O)CO` (stereo not given), for which the GI50 in the test on 786-0 is 74.5 µM (inactive); in the test on COLO 205 it was 18.4 µM (inactive); in the test with EKVX it was 37.6 µM (inactive); in the test on HCT-116, 49.2 µM (inactive); in the test with HOP-92 it was 41.3 µM (inactive); in the test with HT-29, 22.8 µM (inactive). For the same compound, the GI50 is 60.8 µM (inactive) with IGROV-1; 22.5 µM (inactive) in the test on K562; 18.8 µM (inactive) in the test with KM12; > 100 µM (inactive) in the test with OVCAR-3; > 100 µM (inactive) in the test on OVCAR-5; 27.1 µM (inactive) with OVCAR-8. Besides, the GI50 in the test with SF-268 is 21.3 µM (inactive); with SF-295, 15.6 µM (inactive); with SK-OV-3, 54.7 µM (inactive); with SNB-75, 38.9 µM (inactive); in the test with SR, 29.1 µM (inactive); with SW-620, 22.1 µM (inactive). The GI50 in the test with T47D was 40.7 µM (inactive); with UO-31, 35.1 µM (inactive).
